Source: ChEMBL document CHEMBL1201862, “PubChem BioAssay data set” (2004)
Active and inactive are the calls of the source.

How the values were obtained:
[1] = target: DNA dC->dU-editing enzyme APOBEC-3A (Homo sapiens, UniProt P31941); test: Dose Response confirmation of small molecule APOBEC3A DNA Deaminase Inhibitors via a fluorescence-based single-stranded DNA deaminase assay. [Related pubchem assays (depositor defined):AID493011, AID493024]; type: functional
[2] = target: Histone-lysine N-methyltransferase NSD2 (Homo sapiens, UniProt O96028); type: biochemical
[3] = target: DNA dC->dU-editing enzyme APOBEC-3G (Homo sapiens, UniProt Q9HC16); type: functional;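 also: Dose-response counterscreen measuring inhibition of APOBEC3G DNA deaminase activity, run while confirming APOBEC3A inhibitors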
[4] = Luminescence Cell-Based Dose Retest to Confirm Inhibitors of Cancer Stem Cells. [Related pubchem assays (depositor defined):AID2717, AID2721]; type: functional; settings: Homo sapiens
Beta-galactosidase = Beta-galactosidase (Escherichia coli, UniProt Q8VNN2); test: Dose response counterscreen for EBI2 assay utilizing the enzyme, b-galactosidase.; type: functional
[5] = target: Fructose-bisphosphate aldolase (Mycobacterium tuberculosis, UniProt P9WQA3); test: Fluorescence-based biochemical high throughput dose response assay for inhibitors of the fructose-bisphosphate aldolase (FBA) of M. tuberculosis.; type: functional
[6] = Late stage assay provider results from the probe development effort to identify inhibitors of the Plasmodium falciparum M17 Leucine Aminopeptidase (M17LAP): radiolabel-based cell-based dose response assay to identify compounds that inhibit P. falciparum growth in RBCs Set 2.; type: functional
Vero = test: Vero cell toxicity, dose response, cytotoxicity control, plate reader, cherry-pick samples (AID 687020); type: functional, cell-based; settings: Chlorocebus sabaeus
Albumin = Albumin (Bos taurus, UniProt P02769); test: Counterscreen for inhibitors of T-cell receptor (TCR)-CD3 interaction: Fluorescence-based biochemical high throughput dose response assay to identify inhibitors of T-cell receptor (TCR)-CD3 interaction using a TAMRA-labeled BSA probe.; type: functional
A549 = test: A549 cell toxicity, dose response, cytotoxicity control, plate reader, cherry-pick samples (AID 687028); type: functional, cell-based; settings: Homo sapiens

DNA dC->dU-editing enzyme APOBEC-3A, sequence (P31941 whole entry): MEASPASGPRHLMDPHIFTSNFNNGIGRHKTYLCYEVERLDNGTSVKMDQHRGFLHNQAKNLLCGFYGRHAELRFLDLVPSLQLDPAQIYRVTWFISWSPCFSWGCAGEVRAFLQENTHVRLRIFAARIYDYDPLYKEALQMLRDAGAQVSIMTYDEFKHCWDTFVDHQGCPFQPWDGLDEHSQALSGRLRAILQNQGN
Albumin, sequence (P02769 whole entry): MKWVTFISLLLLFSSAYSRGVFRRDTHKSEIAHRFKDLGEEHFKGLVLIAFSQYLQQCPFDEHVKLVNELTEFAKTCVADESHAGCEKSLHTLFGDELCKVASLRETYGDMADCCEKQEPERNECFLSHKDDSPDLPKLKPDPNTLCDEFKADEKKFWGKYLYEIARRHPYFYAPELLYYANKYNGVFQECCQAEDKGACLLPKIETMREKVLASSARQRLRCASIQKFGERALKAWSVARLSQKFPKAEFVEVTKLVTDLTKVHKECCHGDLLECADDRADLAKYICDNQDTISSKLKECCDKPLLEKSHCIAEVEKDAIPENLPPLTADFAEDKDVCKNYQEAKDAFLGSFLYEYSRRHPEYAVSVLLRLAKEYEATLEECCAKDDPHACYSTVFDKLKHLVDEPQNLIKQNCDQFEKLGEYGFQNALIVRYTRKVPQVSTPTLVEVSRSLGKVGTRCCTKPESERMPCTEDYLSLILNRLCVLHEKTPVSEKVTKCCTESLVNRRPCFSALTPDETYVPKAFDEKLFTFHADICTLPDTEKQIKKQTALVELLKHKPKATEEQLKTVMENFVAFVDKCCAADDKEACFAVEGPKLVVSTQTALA
DNA dC->dU-editing enzyme APOBEC-3G, sequence (Q9HC16 whole entry): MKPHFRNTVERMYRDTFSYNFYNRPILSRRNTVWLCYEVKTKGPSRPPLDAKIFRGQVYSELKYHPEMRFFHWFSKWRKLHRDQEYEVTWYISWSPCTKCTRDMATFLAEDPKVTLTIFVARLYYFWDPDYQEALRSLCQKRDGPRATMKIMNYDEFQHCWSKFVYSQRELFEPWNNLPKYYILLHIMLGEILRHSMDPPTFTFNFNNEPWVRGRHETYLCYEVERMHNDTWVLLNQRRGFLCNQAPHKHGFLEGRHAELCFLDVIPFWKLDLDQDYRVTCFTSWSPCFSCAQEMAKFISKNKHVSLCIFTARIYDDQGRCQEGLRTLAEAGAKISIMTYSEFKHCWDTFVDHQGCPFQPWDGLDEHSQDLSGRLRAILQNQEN
Histone-lysine N-methyltransferase NSD2, sequence (O96028 whole entry): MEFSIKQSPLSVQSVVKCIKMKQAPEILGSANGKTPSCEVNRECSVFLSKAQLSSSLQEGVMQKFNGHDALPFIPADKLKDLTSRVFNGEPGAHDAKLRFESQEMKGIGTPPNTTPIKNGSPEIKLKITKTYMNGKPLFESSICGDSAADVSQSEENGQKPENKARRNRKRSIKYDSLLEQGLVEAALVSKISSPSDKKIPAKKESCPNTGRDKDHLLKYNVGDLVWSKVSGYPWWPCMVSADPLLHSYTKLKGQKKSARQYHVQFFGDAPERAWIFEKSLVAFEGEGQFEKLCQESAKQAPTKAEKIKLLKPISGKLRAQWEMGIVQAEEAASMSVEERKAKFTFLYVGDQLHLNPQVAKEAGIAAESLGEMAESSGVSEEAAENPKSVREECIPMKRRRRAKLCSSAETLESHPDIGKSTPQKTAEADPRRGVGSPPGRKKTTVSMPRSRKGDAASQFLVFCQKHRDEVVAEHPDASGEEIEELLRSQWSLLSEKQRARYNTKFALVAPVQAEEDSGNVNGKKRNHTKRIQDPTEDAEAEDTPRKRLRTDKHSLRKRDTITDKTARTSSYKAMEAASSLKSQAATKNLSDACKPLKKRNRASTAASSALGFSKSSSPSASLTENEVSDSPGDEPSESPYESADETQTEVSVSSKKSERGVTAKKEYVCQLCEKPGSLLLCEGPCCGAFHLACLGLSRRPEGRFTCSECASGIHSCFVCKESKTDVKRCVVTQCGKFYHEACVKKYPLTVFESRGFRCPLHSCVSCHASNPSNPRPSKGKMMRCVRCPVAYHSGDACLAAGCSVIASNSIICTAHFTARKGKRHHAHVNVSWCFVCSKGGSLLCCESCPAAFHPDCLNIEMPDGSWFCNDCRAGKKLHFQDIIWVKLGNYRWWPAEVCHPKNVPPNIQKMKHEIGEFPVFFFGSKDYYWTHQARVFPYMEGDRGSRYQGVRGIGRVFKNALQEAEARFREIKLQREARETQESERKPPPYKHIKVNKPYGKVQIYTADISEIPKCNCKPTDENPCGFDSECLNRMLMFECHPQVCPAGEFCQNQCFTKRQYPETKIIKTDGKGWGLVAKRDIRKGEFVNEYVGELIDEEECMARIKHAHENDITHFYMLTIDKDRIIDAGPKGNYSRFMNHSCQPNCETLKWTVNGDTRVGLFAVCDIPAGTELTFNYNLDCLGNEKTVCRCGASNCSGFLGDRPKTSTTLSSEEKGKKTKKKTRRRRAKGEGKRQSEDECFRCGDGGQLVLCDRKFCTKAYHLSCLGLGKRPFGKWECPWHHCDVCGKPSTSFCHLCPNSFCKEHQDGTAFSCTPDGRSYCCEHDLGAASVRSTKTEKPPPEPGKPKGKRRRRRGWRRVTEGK
Fructose-bisphosphate aldolase, sequence (P9WQA3 whole entry): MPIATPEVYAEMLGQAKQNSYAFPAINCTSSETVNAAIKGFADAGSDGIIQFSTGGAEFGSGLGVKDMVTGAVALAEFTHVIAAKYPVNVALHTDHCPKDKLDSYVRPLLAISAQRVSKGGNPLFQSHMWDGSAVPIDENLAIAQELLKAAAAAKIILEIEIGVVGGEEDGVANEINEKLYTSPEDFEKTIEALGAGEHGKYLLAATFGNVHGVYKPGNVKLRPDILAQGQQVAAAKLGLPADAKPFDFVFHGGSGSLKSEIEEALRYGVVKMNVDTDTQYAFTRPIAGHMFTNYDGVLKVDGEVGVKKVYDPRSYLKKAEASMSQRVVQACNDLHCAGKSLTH
Beta-galactosidase, sequence (Q8VNN2 whole entry): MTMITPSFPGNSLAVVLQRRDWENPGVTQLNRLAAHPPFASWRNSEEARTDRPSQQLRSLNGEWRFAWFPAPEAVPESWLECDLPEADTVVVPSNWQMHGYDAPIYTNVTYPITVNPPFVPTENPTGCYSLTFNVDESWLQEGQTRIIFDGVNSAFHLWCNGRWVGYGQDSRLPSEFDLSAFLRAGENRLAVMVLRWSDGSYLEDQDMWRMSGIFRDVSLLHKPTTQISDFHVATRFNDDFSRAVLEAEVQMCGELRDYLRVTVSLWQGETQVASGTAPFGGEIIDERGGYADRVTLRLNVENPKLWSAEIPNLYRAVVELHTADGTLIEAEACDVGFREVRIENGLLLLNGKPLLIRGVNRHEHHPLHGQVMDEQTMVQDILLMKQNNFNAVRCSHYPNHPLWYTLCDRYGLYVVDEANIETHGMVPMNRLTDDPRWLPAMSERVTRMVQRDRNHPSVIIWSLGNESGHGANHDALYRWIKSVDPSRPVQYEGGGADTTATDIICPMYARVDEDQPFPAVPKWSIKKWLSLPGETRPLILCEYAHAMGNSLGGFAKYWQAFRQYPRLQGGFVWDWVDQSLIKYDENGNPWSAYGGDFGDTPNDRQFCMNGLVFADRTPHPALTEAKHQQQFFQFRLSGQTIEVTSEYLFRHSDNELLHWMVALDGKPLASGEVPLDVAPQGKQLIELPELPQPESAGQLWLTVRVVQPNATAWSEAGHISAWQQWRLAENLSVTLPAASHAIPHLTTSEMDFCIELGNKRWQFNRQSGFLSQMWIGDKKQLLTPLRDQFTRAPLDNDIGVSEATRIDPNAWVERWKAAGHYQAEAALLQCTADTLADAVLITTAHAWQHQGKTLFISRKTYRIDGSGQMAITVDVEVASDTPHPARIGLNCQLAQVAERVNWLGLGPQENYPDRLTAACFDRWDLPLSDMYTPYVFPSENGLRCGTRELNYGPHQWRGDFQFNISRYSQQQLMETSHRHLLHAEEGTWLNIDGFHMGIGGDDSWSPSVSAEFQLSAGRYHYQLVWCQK

Question: For `Cc1cc(/C=C2\C(=O)NC(=O)N(c3cccc(F)c3)C2=O)c(C)n1-c1cc(C(=O)O)cc(C(=O)O)c1`, which IC50 [1] is on record?
Answer: 16.8 µM (active)

Question: What about the AC50 [2] of the same compound?
Answer: > 20 µM (inactive)

Question: And the IC50 [3]?
Answer: 27.4 µM (active)

Question: What does the source list for `COC(=O)c1cc(=O)n(Cc2ccc(F)cc2)/c(=N/c2ccccc2)s1`?
Answer: AC50 [4]: 4.82 µM (active); IC50 (Beta-galactosidase): > 80 µM (inactive)

Question: Which IC50 [5] does the source give for `COC1=Nc2ccccc2N2CCN=C12` here?
Answer: 2.07 µM (active)

Question: For `CCCCc1ccc(CC(=O)NO)cc1`, which IC50 [6] is on record?
Answer: 4.3 µM (active)

Question: Which results are given for `O=C(NNC(=O)c1ccccc1O)c1ccccc1O`?
Answer: AC50 (Vero): 1.05 µM (active); IC50 (Albumin): > 93.9 µM (inactive); AC50 (A549): 2.46 µM (active)
